Experimental data from patent publication US20090048267A1, “MEDICAMENTS FOR THE TREATMENT OR PREVENTION OF FIBROTIC DISEASES” (Boehringer Ingelheim International GmbH, priority 2004, published 2009).

Legend:
[1] = system: bleomycin-induced pulmonary fibrosis; experiment: Effect on lung morphology following bleomycin-induced pulmonary fibrosis (histology, Masson's Trichrome staining); format: in vivo, Male Wistar rats; conditions: bleomycin 10 U/kg intratracheal; daily oral treatment with 50 mg/kg, days 1-21; lungs removed 21 days after bleomycin; FIG. 1C
Experimental: (A) Effect of a representative compound on lung morphology following bleomycin-induced pulmonary fibrosis. Bleomycin sulfate (Bleomycin […]) was purchased from a local pharmacy. All experiments were performed in accordance with German guidelines for animal welfare, performed by persons certified to work with animals and approved by the responsible authorities. Male Wistar rats were intratracheally injected with Bleomycin sulfate (10 U/kg body weight in 300 μl saline) or saline alone (saline control) using a catheter (0.5 mm internal diameter, […]) through the nasal passage, following exposure to the anaesthetic Isofluorane for 5 minutes. The following day, the rats were orally treated with Example A (compound (12)) or saline suspended in 1 ml 0.1% Natrosol. Control rats were administered 1 ml 0.1% Natrosol (vehicle control). [table] 21 days following bleomycin instillation, the rats were killed with a lethal intraperitoneal injection of NarcorenTM (Pentobarbital Sodium, Rhone Merieux). The lungs were then removed, blotted dry and half was snap frozen in liquid nitrogen and stored at -80° C. The other half was fixed in 4% formalin for subsequent paraffin embedding and histology. […] Collagen deposition was assessed using Masson's Trichrome staining.

[2] = system: procollagen I gene expression; experiment: Expression of fibrotic marker genes following bleomycin-induced pulmonary fibrosis (real time PCR, lung): procollagen I; format: in vivo, Male Wistar rats; conditions: bleomycin 10 U/kg intratracheal; daily oral treatment with 50 mg/kg, days 1-21; lung RNA at day 21; vs bleomycin + vehicle; FIG. 2
Experimental: (§1) All experiments were performed in accordance with German guidelines for animal welfare, performed by persons certified to work with animals and approved by the responsible authorities. Male Wistar rats were intratracheally injected with Bleomycin sulfate (10 U/kg body weight in 300 μl saline) or saline alone (saline control) using a catheter (0.5 mm internal diameter, […]) through the nasal passage, following exposure to the anaesthetic Isofluorane for 5 minutes. The following day, the rats were orally treated with Example A (compound (12)) or saline suspended in 1 ml 0.1% Natrosol. Control rats were administered 1 ml 0.1% Natrosol (vehicle control).
(§2) 21 days following bleomycin instillation, the rats were killed with a lethal intraperitoneal injection of Narcoren™ (Pentobarbital Sodium, Rhone Merieux). The lungs were then removed, blotted dry and half was snap frozen in liquid nitrogen and stored at −80° C. The other half was fixed in 4% formalin for subsequent paraffin embedding and histology.
(§3) (B) Effect of a representative compound on expression of fibrotic marker genes following bleomycin-induced pulmonary fibrosis.
(§4) One part of the frozen lung tissue dedicated to investigation of gene expression was cut into small pieces using a sterile scalpel blade. […] The concentration of each sample was then measured using a spectrophotometer. […]

[3] = system: fibronectin gene expression; experiment: Expression of fibrotic marker genes following bleomycin-induced pulmonary fibrosis (real time PCR, lung): fibronectin; format: in vivo, Male Wistar rats; conditions: bleomycin 10 U/kg intratracheal; daily oral treatment with 50 mg/kg, days 1-21; lung RNA at day 21; vs bleomycin + vehicle; FIG. 3
Experimental: as §1, §2, §3, §4

melting point	SMILES	lung fibrosis (lung morphology, collagen deposition by Masson's Trichrome staining) [1]	expression of fibrotic marker genes: procollagen I (normalized to 18S) [2]	expression of fibrotic marker genes: fibronectin (normalized to 18S) [3]
265 to 266 °C	COC(=O)c1ccc2c(c1)NC(=O)/C2=C(\Nc1ccc(C(=O)N2CCN(C)[C@@H](C)C2)cc1)c1ccccc1 [(60), (S)-3-(Z)-[1-{4-[(3,4-dimethyl-piperazin-1-yl)-carbonyl]-phenylamino}-1-phenyl-methylidene]-6-methoxycarbonyl-2-indolinone]	–	–	–
–	COC(=O)c1ccc2c(c1)NC(=O)/C2=C(\Nc1ccc(C(=O)N2CCN(C)CC2)cc1)c1ccccc1 [Example A, methyl 3-(Z)-[1-{4-[(4-methyl-piperazin-1-yl)-carbonyl]-phenylamino}-1-phenyl-methylidene]-2-indolinone-6-carboxylate]	nearly complete reversal of lung fibrosis	significant (p<0.0001) inhibition	significant (p<0.0001) inhibition
